Test results taken from patent US20240398973A1, “ENGINEERED ANTIBODY COMPOUNDS AND CONJUGATES THEREOF” (Eli Lilly and Company, priority 2017, published 2024).
Read-outs that look alike come from different tables or passages of the source. Where no end group is shown, it is not given here. The star is where a group is joined. hydrolyzed maleimide‑PEG linker = hydrolyzed maleimide-polyethylene glycol (PEG) linker, bound to the Lys side chain through an epsilon amide bond; For = O=C*

Experiments:
[1] = tested on: Mouse neutrophils purified from marrow; test: Mouse PMN ROS production; type: cell-based; conditions: relative to 10000 nM fMLF, AUC 5 minutes (Table 8c)
Experimental: Mouse neutrophils purified from marrow were exposed to formyl peptides or antibody conjugates and ROS production was measured using luminol amplified chemiluminescence essentially as described above.

[2] = tested on: primary human polymorphonuclear neutrophil (PMN); test: PMN chemotaxis (transwell, modified Boyden chamber); type: cell-based; conditions: relative to 100 nM fMLF, raw migration values (Table 4b)
Experimental: Chemotaxis is measured by observing primary human polymorphonuclear neutrophil (PMN) migration across transwell membranes (Corning #3415) towards antibody conjugates in a modified Boyden chamber assay. Approximately 2-4×10^5 cells from neutrophil-enriched preparations are seeded in upper transwell chambers on membranes with 3.0 um pores. The lower transwell chambers contain solutions of buffer alone and fMLF (N-formyl-Met-Leu-Phe peptide as positive control) and experimental antibody bioconjugates. […] Cell numbers are determined using standard curves. All data are transformed to percent relative to the maximal fMLF response for each individual experiment.

human primary PMNs = test: PMN reactive oxygen species (ROS) production, luminol-amplified chemiluminescence; type: cell-based; conditions: for PMN ROS production: relative to 3000 nM fMLF, AUC 5 minutes (Table 8b)
[3] = molecular target: formyl peptide receptor 1 (FPR1) on primary human polymorphonuclear neutrophils (human) (UniProt P21462); test: cell-based or functional assay
[4] = molecular target: formyl peptide receptor 1 (FPR1) on primary human polymorphonuclear neutrophils (human) (UniProt P21462); test: cell-based or functional assay; remark: listed apart in the source

Substance: FRM-021: SEQ ID NO: 36; formyl-Met-Ile-Phe-Leu-Lys, lysine side chain epsilon amide to a hydrolyzed maleimide-PEG linker (For-MIFLK(hydrolyzed maleimide‑PEG linker))
- Mouse PMN ROS Production ([1]; 10 nM): 14.5 percentage
- Mouse PMN ROS Production ([1]; 30 nM): 17.3 percentage
- Mouse PMN ROS Production ([1]; 100 nM): 112.6 percentage
- Mouse PMN ROS Production ([1]; 300 nM): 150.3 percentage
- Mouse PMN ROS Production ([1]; 1000 nM): 180.2 percentage
- Mouse PMN ROS Production ([1]; 3000 nM): 194.4 percentage
- Mouse PMN ROS Production ([1]; 10000 nM): 186.9 percentage
- PMN Chemotaxis Towards Formyl Peptides ([2]; 1 nM): 151.7%
- PMN Chemotaxis Towards Formyl Peptides ([2]; 3 nM): 142.2%
- PMN Chemotaxis Towards Formyl Peptides ([2]; 10 nM): 137.4%
- PMN Chemotaxis Towards Formyl Peptides ([2]; 30 nM): 52.9%
- PMN Chemotaxis Towards Formyl Peptides ([2]; 100 nM): 37.0%
- PMN Chemotaxis Towards Formyl Peptides ([2]; 300 nM): 35.6%
- PMN Chemotaxis Towards Formyl Peptides ([2]; 1000 nM): 22.8%
- PMN ROS production (human primary PMNs; 10 nM): 8.4 percentage
- PMN ROS production (human primary PMNs; 30 nM): 34.4 percentage
- PMN ROS production (human primary PMNs; 100 nM): 69.2 percentage
- PMN ROS production (human primary PMNs; 300 nM): 84.4 percentage
- PMN ROS production (human primary PMNs; 1000 nM): 91.2 percentage
- PMN ROS production (human primary PMNs; 3000 nM): 102.9 percentage
- PMN ROS production (human primary PMNs; 10000 nM): 91.7 percentage
- EC50 (human primary PMNs; Best-Fit values in Graphpad PRISM (Table 8b)): 51.2 nM

Substance: fMLF (N-formyl-Met-Leu-Phe peptide)
- EC50 of PMN ROS production [3]: 154 nM
- EC50 of PMN ROS production [4]: 334 nM

Substance: TMab-G1-fMLFK-HC-124C-378C (antibody)
- EC50 of PMN ROS production [4]: 164 nM
